The values below come from publication PMC6868653 (Pharmacology Research & Perspectives, 2019).

Numbering of substitutions follows the chain as printed. Where “and” joins values, the source holds several entries; their conditions need not be identical. Equal entries are not always repeated. Where two headings read alike, the source gives them in different places.

Experiment [1] deals with T1, hGPR132a (Homo sapiens, UniProt Q9UNW8).
T1 sequence (Q9UNW8 1-380): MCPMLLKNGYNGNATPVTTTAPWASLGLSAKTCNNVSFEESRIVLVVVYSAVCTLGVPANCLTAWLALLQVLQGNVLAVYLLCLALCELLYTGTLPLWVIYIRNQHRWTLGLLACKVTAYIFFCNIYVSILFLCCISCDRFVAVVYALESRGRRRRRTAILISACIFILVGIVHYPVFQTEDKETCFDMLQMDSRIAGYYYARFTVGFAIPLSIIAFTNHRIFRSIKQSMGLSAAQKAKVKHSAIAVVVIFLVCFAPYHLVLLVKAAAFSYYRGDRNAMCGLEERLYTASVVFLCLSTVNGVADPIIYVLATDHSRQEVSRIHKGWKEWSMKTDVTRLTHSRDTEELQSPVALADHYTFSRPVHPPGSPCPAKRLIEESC
Format: cell-based. To be noted: for pEC50, Human GPR132a, Yeast: mean ± SD, IA = inactive, bound = top concentration tested; for Emax, Human GPR132a, Yeast: normalized to the effect of NPGly.

Experiment [2] addresses T1, hGPR132a. Kind of experiment: β‐arrestin association. The format is cell-based. To be noted: for pEC50, Human GPR132a, β‐arrestin: mean ± SD; for Emax, Human GPR132a, β‐arrestin: normalized to the effect of SB‐583831.
A further experiment has as its target T2, Mouse GPR132 (Mus musculus, UniProt Q9Z282).
T2 sequence (Q9Z282 1-382): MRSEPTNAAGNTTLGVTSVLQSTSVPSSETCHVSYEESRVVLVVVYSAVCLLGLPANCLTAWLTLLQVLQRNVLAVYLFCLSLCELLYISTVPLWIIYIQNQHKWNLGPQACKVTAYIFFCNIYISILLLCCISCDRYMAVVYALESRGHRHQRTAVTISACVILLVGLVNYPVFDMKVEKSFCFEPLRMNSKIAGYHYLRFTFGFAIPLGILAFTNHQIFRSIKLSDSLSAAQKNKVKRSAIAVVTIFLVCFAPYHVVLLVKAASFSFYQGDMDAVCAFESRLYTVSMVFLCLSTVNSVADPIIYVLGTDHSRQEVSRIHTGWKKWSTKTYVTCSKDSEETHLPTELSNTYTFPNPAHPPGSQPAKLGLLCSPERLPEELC
Description: β‐arrestin association. Format: cell-based. To be noted: for pEC50, Mouse GPR132, β‐arrestin: mean ± SD; for Emax, Mouse GPR132, β‐arrestin: normalized to the effect of SB‐583831.

The next experiment concerns the target T3, hGPR132a R203A (Homo sapiens, UniProt Q9UNW8, R203A).
T3 sequence (Q9UNW8 1-380 R203A): T1 sequence (Q9UNW8 1-380) with R203A
Description: Yeast assay, hGPR132a mutant R203A. To be noted: mean ± SD.

The next experiment concerns the target Rat GPR132 (Rattus norvegicus, UniProt A0A8I6A964). Description: Yeast pheromone-response pathway reporter assay, yeast expressing rGPR132. Format: cell-based. To be noted: for pEC50, Rat GPR132, Yeast: mean ± SD; for Emax, Rat GPR132, Yeast: normalized to the effect of 9‐HODE. Background: A reporter such as luciferase makes a cellular process visible.
The target of another experiment is human CB2 (Homo sapiens, UniProt P34972). Description: Yeast assay, specificity receptor human CB2. Format: cell-based.
Sequence of human CB2 (P34972 whole entry): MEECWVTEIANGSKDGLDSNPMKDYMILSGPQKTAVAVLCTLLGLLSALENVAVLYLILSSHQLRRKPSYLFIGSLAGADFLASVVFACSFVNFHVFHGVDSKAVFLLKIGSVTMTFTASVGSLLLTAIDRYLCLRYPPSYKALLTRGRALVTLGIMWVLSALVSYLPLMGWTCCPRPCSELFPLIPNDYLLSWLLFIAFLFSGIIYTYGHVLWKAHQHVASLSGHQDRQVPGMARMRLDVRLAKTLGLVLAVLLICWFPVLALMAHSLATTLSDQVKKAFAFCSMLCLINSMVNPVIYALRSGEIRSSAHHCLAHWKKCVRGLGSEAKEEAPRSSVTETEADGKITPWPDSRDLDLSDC
The test system of the next experiment is CB2. To be noted: tested up to 10 µmol/L; cited from earlier work.
Experiment [3] deals with T1, hGPR132a. Description: Yeast assay hGPR132a, antagonist mode / Schild analysis. The format is cell-based. To be noted: agonist SB‐583831.
For experiment [4], the target named is T1, hGPR132a. Description: Ca2+ microfluorimetry in RBL‐hGPR132a cells. The format is cell-based. To be noted: 10 µmol/L ligand, mean ± SE.
The next experiment relates to parental RBL cells. Description: Ca2+ microfluorimetry in parental RBL cells. The format is cell-based, rat. To be noted: 10 µmol/L ligand, mean ± SE.
The next experiment deals with T4, hGPR132a Y200A (Homo sapiens, UniProt Q9UNW8, Y200A).
T4 sequence (Q9UNW8 1-380 Y200A): T1 sequence (Q9UNW8 1-380) with Y200A
Description: Yeast assay, hGPR132a mutant Y200A. To be noted: mean ± SD.

Sequence of Rat GPR132 (A0A8I6A964 1-384): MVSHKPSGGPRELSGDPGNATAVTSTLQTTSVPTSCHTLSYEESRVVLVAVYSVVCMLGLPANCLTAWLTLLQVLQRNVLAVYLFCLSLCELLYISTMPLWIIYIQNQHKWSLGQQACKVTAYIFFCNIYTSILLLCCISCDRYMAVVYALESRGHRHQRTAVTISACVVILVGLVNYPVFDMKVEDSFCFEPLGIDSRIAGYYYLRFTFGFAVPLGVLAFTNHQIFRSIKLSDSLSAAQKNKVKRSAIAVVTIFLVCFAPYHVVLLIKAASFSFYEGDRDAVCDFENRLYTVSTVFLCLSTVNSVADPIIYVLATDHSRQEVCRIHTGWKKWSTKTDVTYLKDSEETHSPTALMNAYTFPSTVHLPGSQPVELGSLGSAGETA

As for `CCCCCCCCCCCCCCCCCC(=O)NCC(=O)O` [NSGly, N‐stereoylglycine], on hGPR132a [1], the “pEC50, Human GPR132a, Yeast” value is 5.1 ± 0.08 (3) and the “Emax, Human GPR132a, Yeast” value is 80 ± 4%. Further, on hGPR132a [2], the “pEC50, Human GPR132a, β‐arrestin” value is 5.4 (1) and the “Emax, Human GPR132a, β‐arrestin” value is given as 23%. Moreover, on Mouse GPR132, the “pEC50, Mouse GPR132, β‐arrestin” value is <5 (1).
On to `CCCCCCCC/C=C\CCCCCCCC(=O)NCC(=O)O` [NOGly, N‐oleoylglycine], for which, on hGPR132a [1], the “pEC50, Human GPR132a, Yeast” value is given as 5.1 ± 0.24 (3) and the “Emax, Human GPR132a, Yeast” value is given as 95 ± 6%. Further, at hGPR132a [2], the “pEC50, Human GPR132a, β‐arrestin” value was 5.6 ± 0.18 (2) and the “Emax, Human GPR132a, β‐arrestin” value turned out to be 29 ± 15%. Moreover, at Mouse GPR132, the “pEC50, Mouse GPR132, β‐arrestin” value is 5.3 ± 0.05 (2) and the “Emax, Mouse GPR132, β‐arrestin” value was 44 ± 10%. For the same compound, the “pEC50, R203A” value at hGPR132a R203A is recorded as “eliminated the activity”.
Take `CCCCC/C=C\C/C=C\C/C=C\C/C=C\CCCC(=O)NCC(=O)O` [NAGly, N‐arachidonoylglycine]: at hGPR132a [1], the “pEC50, Human GPR132a, Yeast” value is <4.5 (3) and the “Emax, Human GPR132a, Yeast” value was determined as 38%. In addition, at Rat GPR132, the “pEC50, Rat GPR132, Yeast” value is reported as 5.3 ± 0.09 (4) and the “Emax, Rat GPR132, Yeast” value is given as 87 ± 12%. At human CB2, the “Emax, CB2, yeast” value amounted to 17±2% and the “pEC50, CB2, yeast” value was found to be 5.6 ± 0.3. The “binding to CB2” value with CB2 was “does not bind”.
As to `CCCc1nc2c(C)cc(-c3nc4ccccc4n3C)cc2n1Cc1ccc(-c2ccccc2C(=O)O)cc1` [telmisartan], the “Schild Hill slope nH” value on hGPR132a [3] worked out at 1.9.
For `CCCCC/C=C\C/C=C\CCCCCCCC(N)=O` [Linoleamide, linoleamide], on hGPR132a [1], the “pEC50, Human GPR132a, Yeast” value is on record as 5.8 ± 0.01 (3) and the “Emax, Human GPR132a, Yeast” value was 79 ± 11%. At hGPR132a [2], the “pEC50, Human GPR132a, β‐arrestin” value is on record as 5.5 (1) and the “Emax, Human GPR132a, β‐arrestin” value is listed as 22%. On Rat GPR132, the “pEC50, Rat GPR132, Yeast” value was 5.9 ± 0.21 (2) and the “Emax, Rat GPR132, Yeast” value was 37 ± 5%. In addition, the “pEC50, Mouse GPR132, β‐arrestin” value on Mouse GPR132 is reported as <5 (1).
`CCCCC/C=C\C/C=C\CCCCCCCC(=O)O` [Linoleic acid]: the half-maximal effective concentration (EC50) on hGPR132a [1] was more than 100 µM; at hGPR132a [2], more than 10 µM. Further, the “agonist activity at hGPR132a in yeast” value on hGPR132a [1] (tested up to 100 µmol/L) is listed as “no detectable agonist activity”.
With `CC/C=C\C/C=C\C/C=C\C/C=C\C/C=C\C/C=C\CCC(=O)NCC(=O)O` [NDGly, N‐docosahexanoylglycine], on hGPR132a [1], the “pEC50, Human GPR132a, Yeast” value was <4.4 (4) and the “Emax, Human GPR132a, Yeast” value stood at 33%. Besides, at hGPR132a [2], the “pEC50, Human GPR132a, β‐arrestin” value was <5 (2).
Regarding `CCCCC/C=C\C=C\C(O)CCCCCCCC(=O)O` (stereo not shown) [9‐HODE, 9‐hydroxyoctadecadienoic acid], the “pEC50, Human GPR132a, Yeast” value on hGPR132a [1] is given as 5.9 ± 0.14 (4). Also, on Rat GPR132, the “pEC50, Rat GPR132, Yeast” value is 6.2 ± 0.12 (5) and the “Emax, Rat GPR132, Yeast” value is reported as 100%. Moreover, on Mouse GPR132, the “pEC50, Mouse GPR132, β‐arrestin” value is 5.6 ± 0.23 (5) and the “Emax, Mouse GPR132, β‐arrestin” value was 97 ± 6%. Moreover, on hGPR132a [4], the “Ca2+ transient, peak response” value was 0.122 ± 0.016 ratio units. Further, the “Ca2+ transient, peak response” value with parental RBL cells came out at 0.023 ± 0.003 ratio units.
With `CCCCCCCC/C=C\CCCCCCCC(=O)N[C@@H](CO)C(=O)O` [NOSer, N‐oleoylserine], at hGPR132a [1], the “pEC50, Human GPR132a, Yeast” value is given as 5.8 ± 0.07 (4) and the “Emax, Human GPR132a, Yeast” value is given as 21 ± 5%.
As for `CCCCCCC(C)(C)c1ccc([C@@H]2C[C@H](O)CC[C@H]2CCCO)c(O)c1` [CP‐55,940], at hGPR132a [1], the midpoint of the response, the EC50, lay at 3.16 µM and the “Emax, Human GPR132a, Yeast” value was “full agonists”. The Emax at hGPR132a [1] (read-out: Emax, Human GPR132a, Yeast) was found to be 102 ± 3%. The same compound registered an EC50 at Rat GPR132 of more than 3.16 µM. Besides, the “pEC50, Y200A” value on hGPR132a Y200A is listed as “abolished”.
Consider `CCCCC/C=C\C/C=C\CCCCCCCC(=O)NCC(=O)O` [NLGly, N‐linoleoylglycine], for which, at hGPR132a [1], the “pEC50, Human GPR132a, Yeast” value is 5.8 ± 0.08 (3) and the “Emax, Human GPR132a, Yeast” value turned out to be 84 ± 6%. At hGPR132a [2], the “pEC50, Human GPR132a, β‐arrestin” value is given as 5.5 ± 0.23 (2); the “Emax, Human GPR132a, β‐arrestin” value is 39±4% and 38 ± 4%. In addition, on Rat GPR132, the “pEC50, Rat GPR132, Yeast” value is listed as 6.5 ± 0.36 (4) and the “Emax, Rat GPR132, Yeast” value is recorded as 68 ± 7%. Besides, at Mouse GPR132, the “pEC50, Mouse GPR132, β‐arrestin” value is on record as 5.3 (1) and the “Emax, Mouse GPR132, β‐arrestin” value was 40%. The “Ca2+ transient, peak response” value at hGPR132a [4] is given as 0.138 ± 0.03 ratio units. Moreover, the “Ca2+ transient, peak response” value in the experiment on parental RBL cells was 0.040 ± 0.008 ratio units. Besides, the “pEC50, R203A” value at hGPR132a R203A is “abolished responses”.
Take `CCCCC/C=C\C/C=C\C/C=C\C/C=C\CCCC(=O)N[C@@H](Cc1ccc(O)cc1)C(=O)O` [NATyr, N‐arachidonyltyrosine]: the “pEC50, Rat GPR132, Yeast” value on Rat GPR132 is given as <4 (3).
Take `CCCCCCCCCCCCCCCC(=O)NCC(=O)O` [NPGly, N‐palmitoylglycine]: the “pEC50, Human GPR132a, Yeast” value at hGPR132a [1] is recorded as 6.2 ± 0.16 (7). Besides, on hGPR132a [2], the “pEC50, Human GPR132a, β‐arrestin” value is on record as <5 (3) and the “Emax, Human GPR132a, β‐arrestin” value stood at 14%. Besides, at Rat GPR132, the “pEC50, Rat GPR132, Yeast” value is given as 7.0 ± 0.12 (4) and the “Emax, Rat GPR132, Yeast” value came to 53 ± 14%. For the same compound, at Mouse GPR132, the “pEC50, Mouse GPR132, β‐arrestin” value is <5 (2) and the “Emax, Mouse GPR132, β‐arrestin” value is given as 11%. Further, the “pEC50, R203A” value at hGPR132a R203A is given as “abolished responses”.

By EC50 is commonly meant the concentration at which the effect is half-maximal. By Emax is commonly meant the maximal effect, on the per cent scale that the assay sets.
